Measurements reported in patent publication US6403602B1 (priority 1997, dated 2002).
Entries after “also recorded” stand apart in the source; their conditions may differ. Structures can show the parent of a compound that is named as a salt. Where two headings read alike, the source gives them in different places.

Key:
[1] = test system: κ2 sites; format: binding, guinea pig
[2] = target: T1, delta receptors (Cavia porcellus, UniProt A0A286XTF2); assay: biochemical; format: binding, guinea pig
T1 construct: The brains were then homogenized in 50 mM Tris HCl, buffer pH 7.7, using a Polytron; from tissue; host or cells: guinea pig brain homogenate (membrane pellet)

[3] = target: kappa3 receptors; format: binding, guinea pig; details: for Ki: read-out: Ki κ3 [^3H]NalBzoH
[4] = target: mu opioid receptors (Cavia porcellus, UniProt A0ACM8Q262); format: binding, guinea pig; details: for Ki: read-out: Ki μ [^3H]DAMGO
[5] = target: T2, kappa1 sites (Cavia porcellus, UniProt P41144); assay: biochemical; format: binding, guinea pig
T2 construct: The brains were then homogenized in 50 mM Tris HCl, buffer pH 7.7, using a Polytron; from tissue; host or cells: guinea pig brain homogenate (membrane pellet)

[6] = test system: nociception (tail-flick); assay: Tail-flick test after intracerebroventricular administration; format: in vivo; details: rat tail-flick
[7] = test system: nociception (tail-flick); assay: Tail-flick test after subcutaneous administration; details: rat tail-flick, sc
[8] = test system: mu receptors; format: cell-based, guinea pig
[9] = test system: electrically stimulated guinea pig ileum; assay: tissue or blood; format: cell-based
[10] = target: T3, kappa receptors (Cavia porcellus, UniProt P41144); format: cell-based, guinea pig
T3 construct: The longitudinal muscle with the myenteric plexus attached was gently separated from the underlying circular muscle; from tissue; host or cells: guinea pig ileum longitudinal muscle with myenteric plexus

[11] = test system: electrically stimulated mouse vas deferens; assay: tissue or blood; format: cell-based
[12] = target: T4, delta receptors (Mus musculus, UniProt P32300); format: cell-based
T4 construct: The vas deferens from Swiss-Webster mice (30-35 g) were prepared as described by Hughes et al; from tissue; host or cells: mouse vas deferens (Swiss-Webster)

[13] = target: T5, κ opioid receptor (Cavia porcellus, UniProt P41144); assay: Antagonist activity (pA2) at κ in the functional assays; format: cell-based
T5 construct: from tissue; host or cells: organ-bath tissue, probably guinea pig ileum

[14] = target: T6, δ opioid receptor (Mus musculus, UniProt P32300); assay: Antagonist activity (pA2) at δ in the functional assays; format: cell-based
T6 construct: from tissue; host or cells: organ-bath tissue, probably mouse vas deferens

[15] = read-out: Ki δ, experiment done with [^3H]DPDPE
[16] = dose equimolar to 5 mg/kg morphine
[17] = Cavia porcellus, read-out: Guinea Pig Ileum IC50 (nM)
[18] = Mus musculus, read-out: Mouse vas deferens maximum inhibition
[19] = read-out: Guinea Pig Ileum IC50

Chain of mu opioid receptors (A0ACM8Q262 1-400): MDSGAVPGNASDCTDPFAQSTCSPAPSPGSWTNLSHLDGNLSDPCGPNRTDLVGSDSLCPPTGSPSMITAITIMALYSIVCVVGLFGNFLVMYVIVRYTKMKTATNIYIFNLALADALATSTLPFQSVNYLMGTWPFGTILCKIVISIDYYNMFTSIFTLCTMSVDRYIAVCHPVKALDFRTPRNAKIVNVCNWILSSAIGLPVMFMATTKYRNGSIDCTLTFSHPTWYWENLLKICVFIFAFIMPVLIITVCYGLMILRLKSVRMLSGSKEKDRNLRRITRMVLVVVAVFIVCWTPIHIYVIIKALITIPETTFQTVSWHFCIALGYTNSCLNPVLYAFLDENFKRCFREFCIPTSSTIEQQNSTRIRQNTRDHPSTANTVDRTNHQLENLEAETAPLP
T1 sequence (A0A286XTF2 1-366): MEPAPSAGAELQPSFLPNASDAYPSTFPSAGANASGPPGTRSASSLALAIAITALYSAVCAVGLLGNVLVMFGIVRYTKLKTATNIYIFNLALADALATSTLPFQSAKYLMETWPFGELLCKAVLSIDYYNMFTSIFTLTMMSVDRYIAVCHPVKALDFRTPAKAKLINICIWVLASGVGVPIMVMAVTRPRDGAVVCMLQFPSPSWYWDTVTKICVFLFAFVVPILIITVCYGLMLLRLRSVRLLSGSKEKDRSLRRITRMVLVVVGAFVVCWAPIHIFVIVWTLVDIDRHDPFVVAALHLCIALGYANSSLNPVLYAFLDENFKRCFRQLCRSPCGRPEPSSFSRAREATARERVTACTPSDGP
T2 sequence (P41144 whole entry): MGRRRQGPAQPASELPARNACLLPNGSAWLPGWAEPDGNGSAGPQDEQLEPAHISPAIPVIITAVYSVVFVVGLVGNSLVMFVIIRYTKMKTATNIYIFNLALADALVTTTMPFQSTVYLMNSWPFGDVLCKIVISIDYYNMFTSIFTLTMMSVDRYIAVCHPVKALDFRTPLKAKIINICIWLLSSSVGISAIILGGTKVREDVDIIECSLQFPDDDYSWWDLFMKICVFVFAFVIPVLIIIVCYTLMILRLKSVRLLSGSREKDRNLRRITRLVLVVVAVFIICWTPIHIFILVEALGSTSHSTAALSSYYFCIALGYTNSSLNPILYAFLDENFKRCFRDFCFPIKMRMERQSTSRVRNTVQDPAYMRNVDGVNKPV
T3 sequence (P41144 whole entry): as above
T5 sequence (P41144 whole entry): as above
T6 sequence (P32300 whole entry): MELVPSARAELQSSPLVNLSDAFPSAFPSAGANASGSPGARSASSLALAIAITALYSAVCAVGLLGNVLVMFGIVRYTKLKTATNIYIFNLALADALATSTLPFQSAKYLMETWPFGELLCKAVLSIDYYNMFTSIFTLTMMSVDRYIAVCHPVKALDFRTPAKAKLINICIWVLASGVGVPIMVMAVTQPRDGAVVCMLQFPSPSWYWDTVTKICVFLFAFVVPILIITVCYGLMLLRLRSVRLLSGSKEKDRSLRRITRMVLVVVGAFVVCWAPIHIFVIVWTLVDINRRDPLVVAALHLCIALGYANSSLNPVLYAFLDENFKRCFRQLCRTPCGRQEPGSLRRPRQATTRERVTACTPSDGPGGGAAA
T4 sequence (P32300 whole entry): as above

Compound	IC50 [1] [nM]	Ki [2, 15] [nM]	Ki [3] [nM]	Ki [4] [nM]	Ki ([5]; read-out: Ki κ1 [^3H]U69,593) [nM]	Ki [2] [nM]	Guinea Pig Ileum DR with Nor-BNI [10]	other results
CCCN1CCCC(c2cccc(O)c2)C1 (single isomer, unassigned; (+)) [(+) 3-PPP-HCl]	> 10000	> 10000	782	3450	388	–	–	–
CN1CC[C@]23c4c5ccc(O)c4O[C@H]2[C@@H](OS(=O)(=O)O)C=C[C@H]3[C@H]1C5 [NIDA # 20,266, Morphine-6-O-Sulfate]	> 10000	–	6.3	–	–	18	0.87 ± 0.06	duration of maximal analgesia ([6]; icv, molar dose equivalent to the lower dose of morphine): 70 min; affinity to delta receptors in words [2]: greater affinity than that of morphine; analgesic activity in words [7, 16]: maximal analgesic effect similar to morphine; duration of maximal analgesic effect [7, 16]: over 3 hours; affinity to kappa3 receptors in words [3]: greater affinity than that of morphine; selectivity for kappa3 receptors, greater than morphine [3]: 2.2 fold; affinity to mu receptors in words [4]: greater affinity than that of morphine; selectivity for mu-receptors, greater than morphine [4]: 3 fold; Guinea Pig Ileum DR with CTAP [8]: 5.00 ± 2.16; Guinea Pig Ileum Ke of CTAP [8]: 29.18 ± 15.7; Guinea Pig Ileum Ratio (CTAP) [8]: 0.663; Guinea pig ileum, result in words [9]: inhibited electrically induced twitches; IC50 [9, 17]: 67 ± 12.1 nM; Ki [5]: 1190 nM; binding to kappa1 sites in words [5]: weakly
CCC(=O)Oc1ccc2c3c1O[C@H]1[C@@H](OS(=O)(=O)O)C=C[C@H]4[C@@H](C2)N(C)CC[C@@]341 [NIDA # 20,270, 3-O-Propionylmorphine-6-O-sulfate]	> 10000	–	19.9	–	–	40	1.26 ± 0.33	Guinea Pig Ileum Ke of CTAP [8]: 37.58 ± 2.09; Guinea Pig Ileum Ratio (CTAP) [8]: 0.515; IC50 [9, 17]: 154 ± 48.6 nM; inhibition at 20 µM [11, 18]: 20%; Guinea Pig Ileum Ke of Nor-BNI [10]: 40.73; Guinea Pig Ileum Ratio (Nor-BNI) [10]: 0.002; Ki [5]: 252 nM
CC[C@@]12CCN(CC3CC3)C(C(=O)c3ccc(O)cc31)[C@@H]2C (single isomer, unassigned; (-)) [(−)EKC]	25.2	–	3.9	0.4	–	–	–	Ki ([2]; read-out: Ki δ [^3H]Cl-DPDPE): 2 nM; DR with CTAP [8]: 0.62; DR with Naltrindole [12]: 0.90; IC50 ([9]; read-out: IC50 (nM), Guinea Pigs Ileum): 0.15 nM; IC50 ([11]; read-out: IC50 (nM), Mouse Vas Deferens): 5.31 nM
CN1CC[C@]23c4c5ccc(OC(=O)c6ccccc6)c4O[C@H]2[C@@H](OS(=O)(=O)O)C=C[C@H]3[C@H]1C5 [NIDA # 20,273, 3-O-Benzoylmorphine-6-O-sulfate]	> 10000	–	513	–	–	600	1.31 ± 0.13	analgesic activity in words ([7]; dose equimolar to 5 mg/kg morphine, listed as M3B6S): gradual onset of weak analgesia; also recorded: inactive; maximum analgesia, % of maximal analgesia ([7]; equimolar dose, over 4 hours): 27%; Guinea Pig Ileum DR with CTAP [8]: 3.68 ± 0.27; Guinea Pig Ileum Ke of CTAP [8]: 34.92 ± 3.22; Guinea Pig Ileum Ratio (CTAP) [8]: 0.554; Guinea pig ileum, result in words [9]: inhibited electrically induced twitches; IC50 [9, 17]: 658 ± 130 nM; inhibition at 100 µM [11, 18]: 29.4%; Guinea Pig Ileum Ke of Nor-BNI [10]: 70.73 ± 29.13; Guinea Pig Ileum Ratio (Nor-BNI) [10]: 0.001
c1csc(C2(N3CCCCC3)CCCCC2)c1 [TCP-HCl]	> 10000	> 10000	> 10000	2200	2040	–	–	–
CN1CC[C@]23c4c5ccc(OC(=O)C(C)(C)C)c4O[C@H]2[C@@H](OS(=O)(=O)O)C=C[C@H]3[C@H]1C5 [NIDA # 20,272, 3-O-Pivaloylmorphine-6-O-sulfate]	> 10000	–	11.2	–	–	15.2	1.13 ± 0.01	Guinea Pig Ileum DR with CTAP [8]: 4.50 ± 0.14; Guinea Pig Ileum Ratio (CTAP) [8]: 0.676; IC50 [9, 17]: 69.3 ± 25 nM; inhibition at 20 µM [11, 18]: 26.2%; Guinea Pig Ileum Ke of Nor-BNI [10]: 154.77 ± 16.8; Guinea Pig Ileum Ratio (Nor-BNI) [10]: 0.0004; Ki [5]: 1940 nM
O=C1/C(=C/c2ccccc2)C[C@@]2(O)[C@H]3Cc4ccc(O)c5c4[C@@]2(CCN3CC2CC2)[C@H]1O5 [BNTX]	822	–	–	1.9	7.1	–	–	–
Oc1ccc2c3c1O[C@H]1c4[nH]c5ccccc5c4C[C@@]4(O)[C@@H](C2)N(CC2CC2)CC[C@]314 [Naltrindole]	540	–	12.4	–	–	–	–	Kb [13]: 24.5 nM; Ki [5]: 7.8 nM; Kb [14]: 0.012 nM
CC(C)C(=O)Oc1ccc2c3c1O[C@H]1[C@@H](OS(=O)(=O)O)C=C[C@H]4[C@@H](C2)N(C)CC[C@@]341 [NIDA # 20,271, 3-O-Isobutyrylmorphine-6-O-sulfate]	> 10000	–	266	–	–	584	1.38 ± 0.01	Guinea Pig Ileum DR with CTAP [8]: 9.45 ± 4.31; Guinea Pig Ileum Ke of CTAP [8]: 13.55 ± 6.89; Guinea Pig Ileum Ratio (CTAP) [8]: 1.427; IC50 [9, 17]: 1960 nM; inhibition at 100 µM [11, 18]: 38%; Guinea Pig Ileum Ke of Nor-BNI [10]: 53.14 ± 1.30; Guinea Pig Ileum Ratio (Nor-BNI) [10]: 0.001; Ki [5]: 4560 nM
CN1CC[C@]23c4c5ccc(O)c4O[C@H]2[C@@H](O)C=C[C@H]3[C@H]1C5 [Morphine, morphine]	–	–	–	–	–	–	–	onset of analgesic response after icv injection ([6]; higher dose 23.6 μg/4 μl/rat): 6 min
Oc1ccc2c3c1O[C@H]1c4oc5ccccc5c4C[C@@]4(O)[C@@H](C2)N(CC2CC2)CC[C@]314 [NTB]	406	–	7.5	6.5	10.2	–	–	Ki ([2]; read-out: Ki δ [^3H]Cl-DPDPE): 0.06 nM
CC1C2Cc3ccc(O)cc3C1(C)CCN2CC1CC1 (single isomer, unassigned; (+)) [(+) Cyclazocine]	> 10000	> 10000	786	659	383	–	–	–
C=CCN1CC[C@@]2(C)c3cc(O)ccc3C[C@@H]1[C@@H]2C [(+) SKF 10,047-HCl]	> 10000	> 10000	> 1000	2120	2890	–	–	–
Oc1ccc2c3c1O[C@H]1c4[nH]c5c(c4C[C@@]4(O)[C@@H](C2)N(CC2CC2)CC[C@]314)C[C@@]1(O)[C@H]2Cc3ccc(O)c4c3[C@@]1(CCN2CC1CC1)[C@H]5O4 [Nor-BNI (HCl)2, nor-binaltorphimine]	37.5	–	15	–	0.3	6.3	–	–
CC(C)=CCN1CC[C@]2(C)c3cc(O)ccc3C[C@H]1[C@H]2C [(+) Pentazocine-succinate]	5270	3480	420	595	206	–	–	–
C=CCN1CC[C@@]2(C)c3cc(O)ccc3CC1[C@@H]2C.Cl (single isomer, unassigned; (-)) [(−) SKF 10,047-HCl]	132	3.8	–	0.7	0.3	–	273.10	Guinea Pig Ileum DR with CTAP [8]: 0.44 ± 0.02; IC50 [9, 19]: 10.5 nM; Guinea Pig Ileum Ke of Nor-BNI [10]: 0.08 ± 0.01
(−) Pentazocine-succinate	424	–	12.4	5.7	4.4	–	6.10	Guinea Pig Ileum DR with CTAP [8]: 0.73 ± 0.38; IC50 [9, 19]: 170 nM; Guinea Pig Ileum Ke of Nor-BNI [10]: 4.00 ± 0.8
c1ccc(C2(N3CCCCC3)CCCCC2)cc1 [PCP-HCl]	> 10000	> 10000	> 10000	> 10000	> 10000	–	–	–
CC(=O)Oc1ccc2c3c1O[C@H]1[C@@H](OS(=O)(=O)[O-])C=C[C@H]4[C@@H](C2)[N+](C)(C)CC[C@@]341 [NIDA # 20,269, 3-O-Acetyl-N-methylmorphinium-6-O-sulfate]	> 10000	–	400	–	–	842	–	analgesic activity in words ([7]; dose equimolar to 5 mg/kg morphine, listed as MM3A6S): devoid of any analgesic properties; also recorded: inactive; Guinea pig ileum, result in words [9]: no activity; also recorded: lacks activity; Mouse vas deferens, result in words [11]: lacks activity; inhibition at 200 µM [11, 18]: 20%
C=CCN1CC[C@]23c4c5ccc(O)c4O[C@H]2/C(=N/NC(=O)c2ccccc2)CC[C@@]3(O)[C@H]1C5 [NalBzoH, naloxone benzoylhydrazone]	66.5	–	0.3	–	–	1.4	–	Kb [13]: 17.4 nM; Ki [5]: 0.4 nM; Kb [14]: 17.4 nM
